Measured values from patent publication US6710017B2, “Compositions and methods for controlling algae in recirculating water systems” (Avecia, Inc., priority 2000, dated 2004).
Values after ≈ are worked out from the molar mass of the structure shown. Where two headings read alike, the source gives them in different places.

Experiments:
[1] = Margin of exposure versus NOEL (estimated total daily dose to a child in a swimming pool); conditions: for Margin of Exposure vs NOEL: agricultural fungicides, Table B; for Margin of Exposure vs NOEL (Target > 100): herbicides, Table A, ratio of NOEL to estimated daily dose, 10 ppm in pool water, child 22 kg, 3 hours per day
Method: The herbicide preferably has a margin of exposure versus no observed effect level (“NOEL”) value of greater than 10, more preferably greater than 50, especially greater than 80, and more especially greater than 99. The margin of exposure versus NOEL is determined by estimating the total daily dose of the herbicide to a child in a swimming pool and determining the ratio of the NOEL to this. The total daily exposure may be estimated as follows. Oral exposure is estimated by assuming that the swimmer is in the water 3 hours per day, and that the swimmer ingests 50 milliliters of pool water per hour of swimming. It is also assumed that the herbicide will be present in the pool water at a concentration of 10 parts per million, equivalent to 10 milligrams per liter of pool water. The daily oral exposure is therefore estimated as the product of the swimming duration, the ingestion rate, and the concentration in the pool water. Dermal exposure is estimated by assuming the swimmer is in the water 3 hours per day, that the total body surface area, 8800 square centimeters, is immersed in the water, and that the herbicide permeates the skin at a rate, expressed in centimeters per hour, predicted by a model for skin permeation based on chemical structure, the Skinperm model, developed by W. F. ten Berge. A short description of the Skinperm model, can be accessed at: http://home.wxs.nl/˜wtberge/, which is incorporated herein by reference. The daily dermal exposure is then estimated as the product of the permeation rate, the concentration of the herbicide in the pool water (expressed in milligrams per cubic centimeter), the swimming duration, and the total body surface area. The total daily exposure is estimated as the sum of the daily oral and daily dermal exposure. The daily dose, expressed in milligrams per kilogram bodyweight per day, is then estimated as the total daily exposure divided by an assumed body weight of 22 kilograms.

[2] = agricultural fungicides, Table B
[3] = water, cited from earlier work
[4] = Method: The margin of exposure versus NOEL is determined by estimating the total daily dose of the herbicide to a child in a swimming pool and determining the ratio of the NOEL to this. The total daily exposure may be estimated as follows. Oral exposure is estimated by assuming that the swimmer is in the water 3 hours per day, and that the swimmer ingests 50 milliliters of pool water per hour of swimming. It is also assumed that the herbicide will be present in the pool water at a concentration of 10 parts per million, equivalent to 10 milligrams per liter of pool water. The daily oral exposure is therefore estimated as the product of the swimming duration, the ingestion rate, and the concentration in the pool water. Dermal exposure is estimated by assuming the swimmer is in the water 3 hours per day, that the total body surface area, 8800 square centimeters, is immersed in the water, and that the herbicide permeates the skin at a rate, expressed in centimeters per hour, predicted by a model for skin permeation based on chemical structure, the Skinperm model, developed by W. F. ten Berge. A short description of the Skinperm model, can be accessed at: http://home.wxs.nl/˜wtberge/, which is incorporated herein by reference. The daily dermal exposure is then estimated as the product of the permeation rate, the concentration of the herbicide in the pool water (expressed in milligrams per cubic centimeter), the swimming duration, and the total body surface area. The total daily exposure is estimated as the sum of the daily oral and daily dermal exposure. The daily dose, expressed in milligrams per kilogram bodyweight per day, is then estimated as the total daily exposure divided by an assumed body weight of 22 kilograms.
The margin of exposure versus RfD is determined by estimating the total daily dose of the herbicide to a child in a swimming pool, as described above, and determining the ratio of the RfD to this (i.e. margin of exposure/RfD).

[5] = test system: mustard algae; experiment: Remedial laboratory study on algae, change in turbidity; conditions: for Change in Turbidity at active agent (ppm) five days post treatment: 5 ppm: 5 ppm active ingredient; for Change in Turbidity at active agent (ppm) five days post treatment: 5 ppm / Change in Turbidity at active agent (ppm) five days post treatment: 10 ppm: initial absorbance 0.10; for Change in Turbidity at active agent (ppm) five days post treatment: 10 ppm: 10 ppm active ingredient; for water turbidity: indicating killing of the mustard algae
[6] = test system: mustard algae; experiment: Preventative laboratory study on algae, visual growth score; conditions: for Score @ ppm active agent: 0: 0 ppm; for Score @ ppm active agent: 0 / Score @ ppm active agent: 10 / Score @ ppm active agent: 15: 27° C.
[7] = agricultural fungicides, Table B
[8] = herbicides, Table A, 10 ppm in pool water, child 22 kg
[9] = 10 ppm, visual score 0 to 4, 10 days
[10] = 15 ppm, visual score 0 to 4, 10 days

Structure (SMILES): COCC(=O)N(c1c(C)cccc1C)C(C)C(=O)OC (racemic) [Metalaxyl, N-(2,6-dimethylphenyl)-N-(methoxyacetyl)-DL-alaninemethyl ester]
- Margin of Exposure vs NOEL [1]: 98
- Margin of Exposure vs. RfD [2]: 1
- Solubility [3, 7]: 8400 mg/L (≈ 30100 µM)

Structure (SMILES): CO/C=C(/C(=O)OC)c1ccccc1Oc1cc(Oc2ccccc2C#N)ncn1 [Azoxystrobin, Methyl (E)-2-2-6-(2-cyanophenoxy)pyrimidin-4-yloxyphenyl-3-methoxyacrylate]
- Margin of Exposure vs NOEL [1]: 240
- Margin of Exposure vs. RfD [2]: 2.4
- Solubility [3, 7]: 10 mg/L (≈ 24.8 µM)

Structure (SMILES): CC(C)N1C(=O)c2ccccc2NS1(=O)=O [Bentazon, 3-isopropyl-1H-2,1,3-benzothiadiazin-4(3H)-one 2,2-dioxide]
- Margin of Exposure vs NOEL (Target > 100) [1]: 41
- Solubility ([3]; herbicides, Table A): 2300 mg/1
- Margin of Exposure vs. RfD (Target > 1) [4, 8]: 0.4

Structure (SMILES): CC1=C(C(=O)Nc2ccccc2)SCCO1 [Carboxin, 5,6-dihydro-2-methyl-N-phenyl-1,4-oxathiin-3-carboxamide]
- Margin of Exposure vs NOEL [1]: 116
- Change in Turbidity at active agent (ppm) five days post treatment: 5 ppm ([5]; Table 2): 0.01
- Change in Turbidity at active agent (ppm) five days post treatment: 10 ppm ([5]; Table 2): −0.01
- comments (Remedial Algae Control) ([5]; Table 2): algicidal activity
- water turbidity ([5]; Table 2): decreased significantly
- Margin of Exposure vs. RfD [2]: 1.2

Structure (SMILES): Nc1cnn(-c2ccccc2)c(=O)c1Cl [Chloridazon, 5-amino-4-chloro-2-phenyl-3(2H)-pyridazinone]
- Change in Turbidity at active agent (ppm) five days post treatment: 5 ppm ([5]; Table 2): +0.15
- Change in Turbidity at active agent (ppm) five days post treatment: 10 ppm ([5]; Table 2): +0.05
- comments (Remedial Algae Control) ([5]; Table 2): Algistatic. More
- Solubility ([3]; herbicides, Table A): 340 mg/1

Structure (SMILES): CC1(C)CON(Cc2ccccc2Cl)C1=O [Clomazone, 2-[(2-chlorophenyl)methyl]-4,4-dimethyl-3-isoxazolidinone]
- Margin of Exposure vs NOEL (Target > 100) [1]: 41
- Change in Turbidity at active agent (ppm) five days post treatment: 5 ppm ([5]; Table 2): +0.10
- Change in Turbidity at active agent (ppm) five days post treatment: 10 ppm ([5]; Table 2): +0.10
- Score @ ppm active agent: 0 ([6]; visual score 0 to 4, 10 days): 4
- Score @ ppm active agent: 10 [6, 9]: 4
- Score @ ppm active agent: 15 [6, 10]: 3
- Comments (Preventive Algae Control) ([6]; Table 1): heavy growth
- Margin of Exposure vs. RfD (Target > 1) ([4]; human, 3 hours per day, 10 ppm): 0.02

Structure (SMILES): CCSC(=O)N(CC)C1CCCCC1 [Cycloate, S-ethyl cyclohexyl(ethyl)thiocarbamate]
- Margin of Exposure vs NOEL [1]: 1
- Change in Turbidity at active agent (ppm) five days post treatment: 5 ppm ([5]; Table 2): 0.00
- Change in Turbidity at active agent (ppm) five days post treatment: 10 ppm ([5]; Table 2): −0.01
- comments (Remedial Algae Control) ([5]; Table 2): algicidal activity
- water turbidity ([5]; Table 2): decreased significantly
- Margin of Exposure vs. RfD [2]: 0.001

Structure (SMILES): CC(=O)O.CCCCCCCCCCCCNC(=N)N [Dodine, 1-dodecylguanidine acetate]
- Margin of Exposure vs NOEL [1]: 17
- Change in Turbidity at active agent (ppm) five days post treatment: 5 ppm ([5]; Table 2): −0.03
- Change in Turbidity at active agent (ppm) five days post treatment: 10 ppm ([5]; Table 2): −0.04
- comments (Remedial Algae Control) ([5]; Table 2): algicidal activity
- water turbidity ([5]; Table 2): decreased significantly
- Margin of Exposure vs. RfD [2]: 0.02

Structure (SMILES): CCCCc1c(C)nc(NCC)[nH]c1=O [Ethirimol, 5-butyl-2-ethylamino-6-methylpyrimidin-4-ol]
- Solubility [3, 7]: 250 mg/L (≈ 1190 µM)

Structure (SMILES): N#Cc1c[nH]cc1-c1cccc2c1OC(F)(F)O2 [Fludioxonil, 4-(2,2-difluoro-1,3-bezodioxol-4-yl)-1Hpyrrole-3-carbonitrile]
- Margin of Exposure vs NOEL [1]: 44
- Margin of Exposure vs. RfD [2]: 0.4

Structure (SMILES): COC(=O)c1c(Cl)nn(C)c1S(=O)(=O)NC(=O)Nc1nc(OC)cc(OC)n1 [Halosulfuronmethyl, Methyl 5-{[(4,6-dimethoxy-2-pyrimidinyl)amino]carbonylaminosulfonyl}-3-chloro-1-methyl-1H-pyrazole-4-carboxylate]
- Margin of Exposure vs NOEL (Target > 100) [1]: 133
- Solubility ([3]; herbicides, Table A): 15 mg/1
- Margin of Exposure vs. RfD (Target > 1) [4, 8]: 1.3

Structure (SMILES): C=CCOC(Cn1ccnc1)c1ccc(Cl)cc1Cl (stereo not drawn) [Imazalil, 1-[2-(2,4-dichlorophenyl)-2-(2-propenyloxy)ethyl]-1H-imidazole]
- Margin of Exposure vs NOEL [1]: 17
- Margin of Exposure vs. RfD [2]: 0.2
- Solubility [3, 7]: 1400 mg/L (≈ 4710 µM)

Structure (SMILES): CCCOC(=O)NCCCN(C)C.Cl [Propamocarb, Propyl 3-(dimethylamino)propylcarbamate-hydrochloride]
- Margin of Exposure vs NOEL [1]: 438
- Margin of Exposure vs. RfD [2]: 1.4

Structure (SMILES): CCC(=O)Nc1ccc(Cl)c(Cl)c1 [Propanil, N-(3,4-dichlorophenyl)propanamide]
- Margin of Exposure vs NOEL (Target > 100) [1]: 67
- Change in Turbidity at active agent (ppm) five days post treatment: 5 ppm ([5]; Table 2): −0.02
- Change in Turbidity at active agent (ppm) five days post treatment: 10 ppm ([5]; Table 2): −0.03
- comments (Remedial Algae Control) ([5]; Table 2): algicidal activity
- water turbidity ([5]; Table 2): decreased significantly
- Margin of Exposure vs. RfD (Target > 1) [4, 8]: 0.1

Structure (SMILES): CC(C)(C)C(O)(CCc1ccc(Cl)cc1)Cn1cncn1 (stereo not drawn) [Tebuconazole, H-1,2,4-triazole-1-ethanol-alpha-[2-(4-chlorophenyl)-ethyl]-alpha-(1,1-dimethylethyl)]
- Margin of Exposure vs NOEL [1]: 13
- Turbidity @ 5 ppm active ingredient (Change in Turbidity at five days post treatment) ([5]; 5 ppm, Table 4): +0.09
- Turbidity @ 10 ppm active ingredient (Change in Turbidity at five days post treatment) ([5]; 10 ppm, Table 4): +0.24
- comments (Remedial Algae Control) ([5]; Table 4): more effective
- Margin of Exposure vs. RfD [2]: 0.4
- Score @ 10 ppm ([6]; 10 ppm, visual score 0 to 4, 10 days, Table 3): 2
- Score @ 15 ppm active ingredient ([6]; 15 ppm, visual score 0 to 4, 10 days, Table 3): 1
- Comments (Preventive Algae Control) ([6]; Table 3, at 15 ppm): very little growth

Structure (SMILES): Cc1[nH]c(=O)n(C(C)(C)C)c(=O)c1Cl [Terbacil, 3-tert-Butyl-5-chloro-6-methyluracil]
- Margin of Exposure vs NOEL (Target > 100) [1]: 16
- Change in Turbidity at active agent (ppm) five days post treatment: 5 ppm ([5]; Table 2): −0.02
- Change in Turbidity at active agent (ppm) five days post treatment: 10 ppm ([5]; Table 2): −0.02
- comments (Remedial Algae Control) ([5]; Table 2): algicidal activity
- water turbidity ([5]; Table 2): decreased significantly
- Score @ ppm active agent: 0 ([6]; visual score 0 to 4, 10 days): 0
- Score @ ppm active agent: 10 [6, 9]: 0
- Score @ ppm active agent: 15 [6, 10]: 0
- Margin of Exposure vs. RfD (Target > 1) [4, 8]: 0.17

Structure (SMILES): COC(=O)c1cccc(C)c1S(=O)(=O)NC(=O)Nc1nc(OCC(F)(F)F)nc(N(C)C)n1 [Triflusulfuronmethyl]
- Margin of Exposure vs NOEL (Target > 100) [1]: 33
- Change in Turbidity at active agent (ppm) five days post treatment: 5 ppm ([5]; Table 2): +0.04
- Change in Turbidity at active agent (ppm) five days post treatment: 10 ppm ([5]; Table 2): +0.03
- comments (Remedial Algae Control) ([5]; Table 2): Algistatic.
- Solubility ([3]; herbicides, Table A): 110-11000 mg/1
